Experimental data: the supplement of paper PMC10307832

Columns and labels:
Test in all cases: relative viability (nuclei count vs DMSO), 5 days (fraction); higher = more cells survive
[1] = compound: CC1=NC=CC(=C1)C2=CC=C(C=C2)CC(=O)NC3=CC=C(C=C3)C4=CN=CC=C4 [Wnt-C59] + N=C(N)NC(=N)NCCc1ccccc1 [Phenformin] (partner 250 µM)
Procedure, shortened: (§1)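 After 5 days of treatment, lung cancer cells in 1536-well plates were fixed and stained in a single step (final 0.05% Triton X-100, 1% formaldehyde, 1 ug/ml Hoechst) and their nuclei counted on 4× images. Treatment had been applied by pin tool the day after seeding as one drug alone or as a fixed anchor-drug dose with five library-drug doses (not always all listed) in √10 steps. Relative viability is the nuclei count of treated wells divided by that of vehicle wells, and values are medians of duplicate plates.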

[2] = compound: CS(=O)(=O)CCNCc1ccc(-c2ccc3ncnc(Nc4ccc(OCc5cccc(F)c5)c(Cl)c4)c3c2)o1 [Lapatinib] + CC(=O)c1c(C)c2cnc(Nc3ccc(N4CCNCC4)cn3)nc2n(C2CCCC2)c1=O [Palbociclib] (partner 0.5 µM)
Procedure, shortened: as §1

[3] = compound: CS(=O)(=O)CCNCc1ccc(-c2ccc3ncnc(Nc4ccc(OCc5cccc(F)c5)c(Cl)c4)c3c2)o1 [Lapatinib] + COc1cccc2cc(-c3nc([C@H]4CC[C@H](C(=O)O)CC4)n4ncnc(N)c34)[nH]c12 [OSI-027] (partner 0.5 µM)
Procedure, shortened: as §1

[4] = compound: CS(=O)(=O)CCNCc1ccc(-c2ccc3ncnc(Nc4ccc(OCc5cccc(F)c5)c(Cl)c4)c3c2)o1 [Lapatinib] + C[C@]1(O)C[C@@H](c2nc(-c3ccc4ccc(-c5ccccc5)nc4c3)c3c(N)nccn32)C1 [Linsitinib] (partner 1 µM)
Procedure, shortened: as §1

Cell Line	relative viability ([1]; first compound 0.001 µM)	relative viability ([1]; first compound 0.01 µM)	relative viability ([1]; first compound 0.03162 µM)	relative viability ([1]; first compound 0.1 µM)	relative viability ([2]; first compound 0.02 µM)	relative viability ([2]; first compound 0.06325 µM)	relative viability ([2]; first compound 0.2 µM)	relative viability ([2]; first compound 0.6325 µM)	relative viability ([2]; first compound 2 µM)	relative viability ([3]; first compound 0.02 µM)	relative viability ([3]; first compound 0.06325 µM)	relative viability ([3]; first compound 0.2 µM)	relative viability ([3]; first compound 0.6325 µM)	relative viability ([3]; first compound 2 µM)	relative viability ([4]; first compound 0.02 µM)	relative viability ([4]; first compound 0.06325 µM)	relative viability ([4]; first compound 0.2 µM)	relative viability ([4]; first compound 0.6325 µM)	relative viability ([4]; first compound 2 µM)
H3255	0.372	0.321	0.356	0.332	0.334	0.291	0.308	0.291	0.283	0.577	0.524	0.505	0.431	0.236	0.92	0.767	0.783	0.693	0.196
RERF-LC-KJ	0.441	0.478	0.433	0.419	1.11	0.885	0.996	0.864	0.799	0.532	0.344	0.424	0.401	0.315	0.841	0.806	0.782	0.748	0.697
HCC-44	0.315	0.201	0.153	0.23	0.995	1.01	0.976	1.05	0.823	–	0.341	0.509	0.421	0.473	0.709	0.648	0.628	0.627	0.493
SW 1573	0.343	0.41	0.431	0.365	–	0.384	0.411	0.372	0.359	0.626	0.379	0.612	0.735	0.635	0.843	0.82	0.76	0.784	0.794
NCI-H23	0.842	0.663	0.907	0.749	–	–	0.488	0.512	0.457	–	–	0.51	0.639	0.504	–	–	0.508	0.588	0.462
HCC-15	0.47	0.515	0.48	0.438	–	0.68	0.734	0.652	0.584	–	0.386	0.682	0.727	0.612	–	0.857	0.954	0.814	0.599
LU99A	0.904	0.845	0.879	0.876	0.449	0.299	0.385	0.424	0.39	0.283	0.244	0.297	0.293	0.284	0.534	0.511	0.581	0.565	0.561
HOP-62	0.771	0.603	0.662	0.607	–	0.44	0.457	0.451	0.432	0.486	0.756	0.89	0.866	0.914	–	0.923	0.91	0.857	1.01
NCI-H1793	0.34	–	0.397	0.362	–	0.25	0.258	0.293	0.241	–	0.143	0.235	0.167	0.16	–	–	–	0.605	0.515
LXF-289	0.552	0.535	0.552	0.503	0.615	0.588	0.588	0.577	0.526	0.16	0.477	0.796	0.714	0.723	0.983	0.913	0.982	0.902	0.816
COR-L 105	0.48	0.509	0.477	0.479	0.418	0.387	0.352	0.407	0.338	0.638	0.362	0.449	0.413	0.269	0.796	0.772	0.954	0.703	0.272
HCC-827	0.431	0.413	0.452	0.391	0.435	0.433	0.461	0.257	0.415	0.54	0.7	0.691	0.71	0.661	0.944	0.986	0.928	1.05	0.936
PC-14	0.583	0.713	0.478	0.748	0.497	0.526	0.451	0.373	0.0812	0.464	0.743	0.824	0.794	0.152	0.86	0.929	0.885	0.904	0.644
NCI-H1915	0.362	0.392	0.385	0.367	–	0.517	0.489	0.496	0.522	–	0.601	0.629	0.607	0.619	–	1.09	1.08	1.02	1.1
LCLC-103H	0.352	0.334	0.366	0.329	0.445	0.486	0.478	0.533	0.441	0.409	0.372	0.429	0.417	0.436	–	0.978	0.998	0.955	1.08
NCI-H2228	0.325	0.385	0.294	0.415	0.395	0.606	0.744	0.739	0.54	0.395	0.36	0.482	0.568	0.478	0.662	0.51	0.721	0.881	0.891
EPLC-272H	0.297	0.303	0.335	0.335	–	0.288	0.291	0.299	0.261	–	–	0.256	0.227	0.224	–	0.988	1.11	0.959	1.01
NCI-H1792	0.363	0.301	–	0.22	0.618	–	0.614	0.559	0.6	0.665	–	0.558	0.533	0.31	0.456	0.455	0.532	0.533	0.431

Cell Line	relative viability ([1]; first compound 0.001 µM)	relative viability ([1]; first compound 0.01 µM)	relative viability ([1]; first compound 0.03162 µM)	relative viability ([1]; first compound 0.1 µM)	relative viability ([2]; first compound 0.02 µM)	relative viability ([2]; first compound 0.06325 µM)	relative viability ([2]; first compound 0.2 µM)	relative viability ([2]; first compound 0.6325 µM)	relative viability ([2]; first compound 2 µM)	relative viability ([3]; first compound 0.02 µM)	relative viability ([3]; first compound 0.06325 µM)	relative viability ([3]; first compound 0.2 µM)	relative viability ([3]; first compound 0.6325 µM)	relative viability ([3]; first compound 2 µM)	relative viability ([4]; first compound 0.02 µM)	relative viability ([4]; first compound 0.06325 µM)	relative viability ([4]; first compound 0.2 µM)	relative viability ([4]; first compound 0.6325 µM)	relative viability ([4]; first compound 2 µM)
NCI-H2126	0.542	0.507	0.53	0.541	0.38	0.349	0.346	0.348	0.319	–	–	0.644	0.688	0.557	–	0.658	0.685	0.645	0.593
ABC-1	0.237	0.248	0.257	0.262	0.71	0.487	–	0.533	0.787	0.532	0.321	0.706	0.702	0.477	–	0.813	0.871	0.773	0.504
NCI-H650	0.441	0.457	0.483	0.5	–	0.315	0.346	0.319	0.334	–	0.411	0.468	0.505	0.543	–	0.841	0.793	0.567	0.875
LOU-NH91	0.793	0.641	0.601	0.672	0.542	0.525	0.508	0.494	0.57	0.608	0.577	0.51	0.589	0.453	0.861	0.761	0.753	0.637	0.464
NCI-H2023	0.406	0.415	0.419	0.35	–	0.266	0.324	0.242	0.264	0.379	–	0.337	0.382	0.177	0.594	0.519	0.474	0.512	0.366
LC-2-ad	0.68	0.546	0.659	0.545	–	0.522	0.527	0.501	0.476	–	0.49	0.767	0.764	0.619	–	0.817	0.799	0.694	0.585
NCI-H1355	0.446	0.42	0.456	0.475	0.411	0.29	0.402	0.361	0.268	–	0.216	0.342	0.367	0.268	–	0.745	0.782	0.792	0.526
NCI-H2347	0.446	0.369	0.249	0.388	0.385	0.45	0.456	0.378	0.386	–	0.266	0.462	0.44	0.366	0.963	0.97	1.01	0.929	0.926
NCI-H441	0.845	0.732	1.04	0.724	0.222	–	0.176	0.236	0.185	–	0.34	0.53	0.559	0.617	0.377	0.659	0.494	0.457	0.593
NCI-H1944	0.197	0.188	0.19	0.197	0.304	0.253	0.265	0.275	0.225	0.28	0.237	0.356	0.361	0.31	–	–	0.959	0.767	0.656
NCI-H661	0.292	0.311	0.27	0.288	0.374	0.382	0.325	0.356	0.3	0.654	0.322	0.545	0.495	0.424	0.616	0.485	0.436	0.454	0.266
201T	0.446	0.43	0.424	0.452	0.358	0.309	0.339	0.338	0.342	0.794	0.598	0.597	0.807	0.703	0.96	0.92	1	1.04	0.909
NCI-H2087	0.504	0.416	0.547	0.465	0.238	0.161	0.177	0.251	0.246	–	0.259	0.547	0.527	0.489	0.97	0.887	1.01	1.06	0.818
BEN	0.292	0.27	0.269	0.247	0.455	0.469	0.472	0.432	0.468	–	0.279	0.298	0.288	0.25	0.91	0.858	0.878	0.769	0.8
COR-L23	0.427	0.471	0.442	0.416	0.248	0.298	0.342	0.297	0.279	0.771	0.651	0.769	0.721	0.654	0.955	0.87	0.986	0.945	0.875
NCI-H1755	0.486	0.631	0.609	0.632	0.475	0.463	0.423	0.417	0.48	0.423	0.567	0.653	0.696	0.697	0.983	0.963	0.982	0.95	0.714
EMC-BAC-2	0.533	0.484	0.525	0.505	–	0.459	0.524	0.536	0.539	0.339	0.277	0.377	0.392	0.346	0.755	0.732	0.698	0.623	0.563
NCI-H1734	0.389	0.356	0.478	0.354	–	0.271	0.31	0.332	0.303	0.615	0.375	0.579	0.721	0.507	–	0.729	0.946	0.858	0.745
